Columns and labels:
Type in all cases: functional
MCF7 = assay: Growth inhibition of human MCF7 cells
SF-539 = assay: Growth inhibition of human SF539 cells
SR = assay: Growth inhibition of human SR cells
HCT-116 = assay: Growth inhibition of human HCT116 cells
SF-295 = assay: Growth inhibition of human SF295 cells
NCI-H522 = assay: Growth inhibition of human NCI-H522 cells
SK-MEL-5 = assay: Growth inhibition of human SK-MEL-5 cells
HOP-62 = assay: Growth inhibition of human HOP62 cells
T47D = assay: Growth inhibition of human T47D cells
CAKI-1 = assay: Growth inhibition of human Caki1 cells
COLO 205 = assay: Growth inhibition of human COLO205 cells
SK-MEL-2 = assay: Growth inhibition of human SK-MEL-2 cells
NCI-H322M = assay: Growth inhibition of human NCI-H322M cells
BT-549 = assay: Growth inhibition of human BT549 cells
UACC-62 = assay: Growth inhibition of human UACC62 cells
IGROV-1 = assay: Growth inhibition of human IGROV1 cells
HCC 2998 = assay: Growth inhibition of human HCC2998 cells
NCI-H23 = assay: Growth inhibition of human NCI-H23 cells
KM12 = assay: Growth inhibition of human KM12 cells
NCI-H226 = assay: Growth inhibition of human NCI-H226 cells
DU-145 = assay: Growth inhibition of human DU145 cells
A549 = assay: Growth inhibition of human A549 cells
Malme-3M = assay: Growth inhibition of human MALME-3M cells
UACC-257 = assay: Growth inhibition of human UACC257 cells
ACHN = assay: Growth inhibition of human ACHN cells
UO-31 = assay: Growth inhibition of human UO31 cells
HCT-15 = assay: Growth inhibition of human HCT15 cells
U-251 = assay: Growth inhibition of human U251 cells
M14 = assay: Growth inhibition of human M14 cells
SN12C = assay: Growth inhibition of human SN12C cells
786-0 = assay: Growth inhibition of human 786-0 cells
RXF 393 = assay: Growth inhibition of human RXF393 cells
NCI-H460 = assay: Growth inhibition of human NCI-H460 cells
A498 = assay: Growth inhibition of human A498 cells
HL-60(TB) = assay: Growth inhibition of human HL-60(TB) cells
MOLT-4 = assay: Growth inhibition of human MOLT4 cells
K562 = assay: Growth inhibition of human K562 cells
SNB-19 = assay: Growth inhibition of human SNB19 cells
OVCAR-4 = assay: Growth inhibition of human OVCAR4 cells
OVCAR-3 = assay: Growth inhibition of human OVCAR-3 cells
SK-OV-3 = assay: Growth inhibition of human SKOV3 cells
TK-10 = assay: Growth inhibition of human TK10 cells
HT-29 = assay: Growth inhibition of human HT-29 cells
[1] = read-out: pLC50 (the source's name) (converted)

## COc1cc(CCc2cc(O)c(C/C=C(\C)CC/C=C(\C)CO)c(O)c2)cc2c1O[C@]1(C)CC[C@@H](O)C(C)(C)[C@H]1C2
MCF7
  GI50: 2.95 µM
MCF7; [1]
  CC50: 53.7 µM
MCF7; read-out: pTGI (converted)
  TGI: 12.9 µM
SF-539
  GI50: 2.29 µM
  LC50: 33.9 µM
SF-539; read-out: pTGI (converted)
  TGI: 11.7 µM
SR
  GI50: 2.09 µM
  LC50: 66.1 µM
SR; read-out: pTGI (converted)
  TGI: 7.59 µM
HCT-116
  GI50: 3.47 µM
HCT-116; [1]
  CC50: 40.7 µM
HCT-116; read-out: pTGI (converted)
  TGI: 13.2 µM
SF-295
  GI50: 2.51 µM
  LC50: 45.7 µM
SF-295; read-out: pTGI (converted)
  TGI: 10 µM
NCI-H522
  GI50: 5.25 µM
  LC50 (50% lethal concentration): > 100 µM
NCI-H522; read-out: pTGI (converted)
  TGI: 29.5 µM
SK-MEL-5
  GI50: 3.39 µM
  LC50: 33.1 µM
SK-MEL-5; read-out: pTGI (converted)
  TGI: 11 µM
HOP-62
  GI50: 10 µM
  LC50: 53.7 µM
HOP-62; read-out: pTGI (converted)
  TGI: 22.9 µM
T47D
  GI50: 5.89 µM
T47D; [1]
  CC50: > 100 µM
T47D; read-out: pTGI (converted)
  TGI: 35.5 µM
CAKI-1
  GI50: 4.37 µM
  LC50: > 100 µM
CAKI-1; read-out: pTGI (converted)
  TGI: 21.9 µM
COLO 205
  GI50: 10.7 µM
  LC50: 67.6 µM
COLO 205; read-out: pTGI (converted)
  TGI: 26.9 µM
SK-MEL-2
  GI50: 3.89 µM
  LC50: 75.9 µM
SK-MEL-2; read-out: pTGI (converted)
  TGI: 17.4 µM
NCI-H322M
  GI50: 5.5 µM
NCI-H322M; [1]
  CC50: > 100 µM
NCI-H322M; read-out: pTGI (converted)
  TGI: 42.7 µM
BT-549
  GI50: 3.16 µM
BT-549; [1]
  CC50: 75.9 µM
BT-549; read-out: pTGI (converted)
  TGI: 21.9 µM
UACC-62
  GI50: 4.79 µM
UACC-62; [1]
  CC50: 81.3 µM
UACC-62; read-out: pTGI (converted)
  TGI: 20.9 µM
IGROV-1
  GI50: 4.9 µM
  LC50: > 100 µM
IGROV-1; read-out: pTGI (converted)
  TGI: 26.3 µM
HCC 2998
  GI50: 6.17 µM
HCC 2998; read-out: pTGI (converted)
  TGI: 25.1 µM
NCI-H23
  GI50: 6.92 µM
  LC50: 85.1 µM
NCI-H23; read-out: pTGI (converted)
  TGI: 25.7 µM
KM12
  GI50: 4.17 µM
  LC50: 91.2 µM
KM12; read-out: pTGI (converted)
  TGI: 18.6 µM
NCI-H226
  GI50: 13.2 µM
  LC50: > 100 µM
NCI-H226; read-out: pTGI (converted)
  TGI: 66.1 µM
DU-145
  GI50: 6.46 µM
  LC50: > 100 µM
DU-145; read-out: pTGI (converted)
  TGI: 28.2 µM
A549
  GI50: 4.9 µM
  LC50 (50% lethal concentration): > 100 µM
A549; read-out: pTGI (converted)
  TGI: 95.5 µM
Malme-3M
  GI50: 6.31 µM
  LC50: > 100 µM
Malme-3M; read-out: pTGI (converted)
  TGI: 38 µM
UACC-257
  GI50: 6.61 µM
  LC50: > 100 µM
UACC-257; read-out: pTGI (converted)
  TGI: 28.2 µM
ACHN
  GI50: 5.25 µM
ACHN; [1]
  CC50: > 100 µM
ACHN; read-out: pTGI (converted)
  TGI: 35.5 µM
UO-31
  GI50: 3.47 µM
UO-31; [1]
  CC50: > 100 µM
UO-31; read-out: pTGI (converted)
  TGI: 20 µM
HCT-15
  GI50: 5.01 µM
  LC50: > 100 µM
HCT-15; read-out: pTGI (converted)
  TGI: 22.9 µM
U-251
  GI50: 3.02 µM
  LC50: 58.9 µM
U-251; read-out: pTGI (converted)
  TGI: 18.6 µM
M14
  GI50: 6.03 µM
M14; [1]
  CC50: 83.2 µM
M14; read-out: pTGI (converted)
  TGI: 23.4 µM
SN12C
  GI50: 7.59 µM
  LC50: > 100 µM
SN12C; read-out: pTGI (converted)
  TGI: 52.5 µM
786-0
  GI50: 2.4 µM
  LC50: > 100 µM
786-0; read-out: pTGI (converted)
  TGI: > 100 µM
RXF 393
  GI50: 0.363 µM
RXF 393; [1]
  CC50: > 100 µM
RXF 393; read-out: pTGI (converted)
  TGI: 1.38 µM
NCI-H460
  GI50: 3.31 µM
  LC50: 38.9 µM
NCI-H460; read-out: pTGI (converted)
  TGI: 10.7 µM
A498
  GI50: 7.59 µM
  LC50: > 100 µM
A498; read-out: pTGI (converted)
  TGI: 61.7 µM
HL-60(TB)
  GI50: 3.02 µM
HL-60(TB); [1]
  CC50: 95.5 µM
HL-60(TB); read-out: pTGI (converted)
  TGI: 12.6 µM
MOLT-4
  GI50: 1.7 µM
  LC50: 97.7 µM
MOLT-4; read-out: pTGI (converted)
  TGI: 7.59 µM
K562
  GI50: 3.09 µM
K562; [1]
  CC50: 64.6 µM
K562; read-out: pTGI (converted)
  TGI: 12.9 µM
SNB-19
  GI50: 4.17 µM
  LC50: 49 µM
SNB-19; read-out: pTGI (converted)
  TGI: 18.2 µM
OVCAR-4
  GI50: 11.5 µM
OVCAR-4; [1]
  CC50: > 100 µM
OVCAR-4; read-out: pTGI (converted)
  TGI: 45.7 µM
OVCAR-3
  GI50: 11.5 µM
  LC50 (50% lethal concentration): > 100 µM
OVCAR-3; read-out: pTGI (converted)
  TGI: 33.1 µM
SK-OV-3
  GI50: 8.51 µM
  LC50: > 100 µM
SK-OV-3; read-out: pTGI (converted)
  TGI: 31.6 µM
TK-10
  GI50: 13.2 µM
  LC50: > 100 µM
TK-10; read-out: pTGI (converted)
  TGI: 67.6 µM
HT-29
  GI50: 7.94 µM
  LC50 (50% lethal concentration): 87.1 µM
HT-29; read-out: pTGI (converted)
  TGI: 26.3 µM
